For orientation: melting point means the temperature, or range, at which the solid turns liquid.

Experimental findings from a melting point compilation (Tetko et al.; mined from patent text by program, amines drawn as free bases though some values may be those of a salt) are described below.

The structures appear in SMILES notation.

For `COc1cccc(C(=O)P2(=O)Oc3ccccc3-c3ccccc32)c1` (stereo unspecified), the melting point was in the range of 116 to 118 °C.

With `COCCO[C@@H]1c2ccc3c(nc(C4CC4)n3C)c2O[C@H](c2ccccc2)[C@H]1O`, the melting point is 133 °C.

For the compound `CC1(C)Cc2c(ccc3c2C(c2cccc(-c4ccc(C(=O)O)cc4)c2)=NCC3(C)C)O1`, the melting point was 286 to 291 °C.

In turn, `CCCN1N=C2C(=Cc3cccc(C(F)(F)F)c3)CSCC2C1c1cccc(C(F)(F)F)c1` (stereo unspecified) registered a melting point of 90 to 93.5 °C.

In turn, `COc1ccccc1NC(=O)Nc1nc(Nc2ccccc2-c2ccccc2)nc(N(CCC(=O)O)Cc2ccc(F)cc2)n1` registered a melting point of 108 °C.

For `COc1ccc(-c2[nH]nc3c2C(=O)c2c(NC(=O)CNCCO)cccc2-3)cc1`, the melting point came to 243 °C.

With `CO[C@@H]1CC[C@@H](NC(N)=O)c2ccccc21` (relative stereo), the melting point lay within 159 to 165 °C.

For the compound `O=c1c(-c2ccc(NS(=O)(=O)c3ccccc3)cc2)coc2cc(O)c(O)cc12`, the melting point is 285 to 286 °C.

With `Cc1cc(O)c(SCc2ccc(F)cc2)c(=O)o1`, the melting point lay within 114 to 118 °C.

Compound `N#Cc1cc(Cl)nc(NN)c1` had a melting point of 208 to 210 °C.

`S=C1Nc2ccccc2CN(c2ccccc2)N1`: the melting point was 242 to 244 °C.

`O=C(NCCC[C@H]1OC[C@H](c2cccc3cc(OCC4CC4)ccc32)CO1)OCC(F)(F)F` showed a melting point of 105 to 107 °C.

In turn, `COC(=O)c1ccc(C(=O)NCCCCNC(=O)c2ccc(C(=O)OC)cc2)cc1` yielded a melting point of 260 to 261 °C.

Turning to `C=CCOC1CC2C3CCC4=CC(=O)CCC4(C)C3(F)C(O)CC2(C)C1(O)C(=O)CCl` (stereo unspecified), the melting point was 224 to 225 °C.

Turning to `CC(C)CCc1c(-c2ccc(S(N)(=O)=O)c(F)c2)cnn(CC(F)(F)F)c1=O`, the melting point was 153 to 156 °C.

On to `CCc1cc(=O)c2c([nH]1)CCCC2`, for which the melting point was 133 to 137 °C.

As for `CC(C)(C)c1cc(-n2nc3ccc(Sc4ccccc4)cc3n2)c(O)c(C(C)(C)C)c1`, the melting point was in the range of 132 to 134 °C.

With `C#CC1CCC(c2ccc(C3CCC(CCC)CC3)cc2)CC1` (stereo unspecified), the melting point was 143 °C.

Consider `CCCCOc1ccc(-c2ccc3c(c2)C=C(C(=O)Nc2ccc(C(O)c4ccccn4)cc2)CCS3(=O)=O)cc1` (stereo unspecified), for which the melting point lay in the range of 142 to 145 °C.

Compound `COCC(O)c1cccc(S(N)(=O)=O)c1` (stereo unspecified) registered a melting point of 109 °C.

With `Cc1cc2ccccc2n1-c1ccnc2ccccc12`, the melting point lay within 78 to 80 °C.

For `NS(=O)(=O)C1C=CC=CC1(CCNC(=O)C=Cc1cccs1)OCCOC(F)(F)F` (stereo unspecified), the melting point is 203 to 205 °C.

Compound `O=c1[nH]c(CCCOc2cccc(CN3CCCCC3)c2)ncc1Cc1ccnc(O)c1` returned a melting point of 167 to 169 °C.

`CCCCOc1cccc(CCNC(=O)C=CC2CCCCC2)c1` had a melting point of 67 to 71 °C.

In turn, `COC(=O)C1=CC(C(=O)c2cc(Br)cc(Br)c2O)=CN2CCc3c([nH]c4ccccc34)C12C(=O)OC` (stereo unspecified) gave a melting point of 131 °C.

In turn, `C[C@H]1[C@@H](O)C(F)(F)C(=O)N1c1ccc(C#N)c(C(F)(F)F)c1` displayed a melting point of 128 to 131 °C.

Compound `COc1c2c(c(OC)c(OC)c1OC)CCC(CCOc1cccnc1)CC2` returned a melting point of 111 to 113 °C.

`O=C/C=C/c1c(-c2ccc(F)cc2)n(CCc2ccccc2)c(=O)c2ccccc12`: the melting point lay within 133 to 134 °C.

As for `Cc1cccc(C(=O)c2ccccc2F)c1N`, the melting point lay within 65.5 to 67.5 °C.

Consider `CO[C@@H](Cc1ccc(OCCc2nc(-c3cc(C)cc(C)c3)oc2C)c2ccccc12)C(=O)O`, for which the melting point lay in the range of 197 to 198 °C.

In turn, `NC(=O)N(O)Cc1ccc(N2CCC(=O)CC2)cc1` yielded a melting point of 138 to 140 °C.

Compound `Cc1c(NCCN)nc(=O)n(C)c1N` gave a melting point of 186 to 188 °C.

In turn, `CCCC(=O)C1=C(O)CC(c2cc([N+](=O)[O-])ccc2F)CC1=O` (stereo unspecified) yielded a melting point of 132 °C.

In the case of `CC1(C)COC(=O)N1c1nc(-c2ccc(C#N)cc2)cs1`, the melting point is 183 to 185 °C.

On to `Cc1ccc(C2c3c(C)c(Br)c(C)c(C=O)c3OC2(C)C)cc1` (stereo unspecified), for which the melting point lay within 128 to 130 °C.

In the case of `Cc1cc(CC(=O)O)n(C)c1C(=O)c1ccc(F)cc1`, the melting point was 176 to 178 °C.

Consider `CC(C)(C)c1cc(Cc2cc(C(C)(C)C)cc(C(C)(C)C)c2O)c(O)c(-n2nc3ccccc3n2)c1`, for which the melting point came out at 208 °C.

In the case of `CC(=O)c1ccc(-n2c(-c3cc(-c4ccncc4)c(N4CCOCC4)s3)nc3ccccc3c2=O)cc1`, the melting point fell in the range of 241 to 242 °C.

For the compound `O=C1COCCN1CCn1c2ccccc2c2c(N3CCCC3)nc(N3CCCC3)nc21`, the melting point lay in the range of 179 to 180 °C.

With `O=C1NC2CCCC1NC2=O`, the melting point lay within 280 to 283 °C.

As for `Cc1oc(-c2ccccc2)nc1COc1ccc(COc2nn(Cc3ccccc3)cc2CC(=O)O)cc1`, the melting point is 91 to 92 °C.

With `O=C(Nc1cc(OCCCO/N=C/c2cc(C(F)(F)F)cc(C(F)(F)F)c2)ccc1C(=O)O)c1ccc(OC(F)(F)F)cc1`, the melting point is 184 to 186 °C.

`c1ccc(-c2cc(-c3c[nH]nc3-c3ccccn3)ccn2)cc1`: the melting point was 148 °C.

As to `FC(F)(F)CN1CCC(CNOCc2ccccc2)CC1`, the melting point lay in the range of 93.8 to 95.1 °C.

As for `C=C1C(=C)C2OC1C1=C2Cc2c(OC)ccc(OC)c2C1`, the melting point fell in the range of 177 to 178 °C.

As to `O=C(O)c1ccccc1C(=O)C=Cc1cc(O)c(O)c([N+](=O)[O-])c1`, the melting point lay in the range of 178 to 180 °C.

In turn, `COc1ccccc1N1CCN(C[C@H]2COc3ccc4nc(C)ccc4c3O2)CC1` registered a melting point of 44 to 47 °C.

Consider `CC(=O)Nc1ccc(C(=O)C=CN(C)C)cc1`, for which the melting point lay in the range of 185 to 186 °C.

In the case of `COC(=O)c1ccc(OC)c(NC(=N)c2ccc(F)cc2Cl)c1`, the melting point turned out to be 120 °C.

Take `CCCC(=O)c1ccc(NC(C)=O)cc1`: the melting point fell in the range of 141 to 143 °C.

For `CCN1c2ncc(COc3cccc(OC)c3)cc2C(=O)N(C)c2ccc(Cl)nc21`, the melting point fell in the range of 95 to 97 °C.

Consider `C=C(C)CN(CC)c1nc(C)[nH]c2cc(-c3ccccc3)nc1-2`, for which the melting point fell in the range of 148 to 150 °C.

In turn, `CC(=O)Nc1ccc(C(=O)C=CC(=O)O)cc1` showed a melting point of 206 to 207 °C.

Take `NC(=O)c1cc(C(c2c(F)ccc(F)c2F)S(=O)(=O)CCC(F)(F)F)c(Cl)cn1` (stereo unspecified): the melting point lay in the range of 237 to 239 °C.

In the case of `CCn1nc(-c2nc(C#N)c(C#N)nc2-c2ccccc2)ccc1=O`, the melting point was 201 to 203 °C.

`COC(=O)Nc1nc2ccc(OS(=O)(=O)c3cccc(OC(F)(F)C(F)F)c3)cc2[nH]1` returned a melting point of 186 °C.

`CC1(C)CC(=O)C(C(=S)Nc2ccc(Cl)c(Cl)c2)C(=O)C1` displayed a melting point of 113 to 116 °C.

Take `CC(C)(C)OC(=O)N1CCN(c2ccc(Oc3cc(Cl)ccc3[N+](=O)[O-])cc2)CC1`: the melting point lay within 124 to 125 °C.

`CC(=S)NCC1CN(c2ccc(C(=O)NN)c(F)c2)C(=O)O1` (stereo unspecified): the melting point amounted to 177 °C.

On to `COC(=O)c1c(NCc2ccc(OC)c(Cl)c2)nc(N2CCC(O)CC2)nc1N1CCn2ccnc2C1`, for which the melting point was in the range of 191 to 194 °C.

The compound `COc1cn(-c2ccc(N3CC(F)(F)C3)cc2F)nc(-c2ccnn2-c2ccccc2)c1=O` returned a melting point of 204 to 206 °C.
